Experimental data: PubChem BioAssay (NCI)
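These data come from cells grown in 96-well plates and exposed to compound for 48 hours at five concentrations. GI50 = concentration required for 50% inhibition of growth. TGI marks complete inhibition of growth.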

Tests used:
Assay in all cases: NCI tumour cell line growth inhibition, 48 h
SK-MEL-28 melanoma = test system: SK-MEL-28 melanoma
MALME-3M melanoma = test system: MALME-3M melanoma
HOP-62 NSCLC = test system: HOP-62 NSCLC
OVCAR-3 ovarian = test system: OVCAR-3 ovarian
HCC-2998 colon = test system: HCC-2998 colon
UACC-62 melanoma = test system: UACC-62 melanoma
HOP-92 NSCLC = test system: HOP-92 NSCLC
MCF7 breast = test system: MCF7 breast
UACC-257 melanoma = test system: UACC-257 melanoma
SF-539 CNS = test system: SF-539 CNS
KM12 colon = test system: KM12 colon
BT-549 breast = test system: BT-549 breast
SR leukemia = test system: SR leukemia
EKVX NSCLC = test system: EKVX NSCLC
HL-60(TB) leukemia = test system: HL-60(TB) leukemia
NCI-H226 lung = test system: NCI-H226 lung
LOX IMVI melanoma = test system: LOX IMVI melanoma
MDA-MB-435 = test system: MDA-MB-435
IGROV1 ovarian = test system: IGROV1 ovarian
MDA-MB-468 breast = test system: MDA-MB-468 breast
DU-145 prostate = test system: DU-145 prostate
OVCAR-8 ovarian = test system: OVCAR-8 ovarian
SF-268 CNS = test system: SF-268 CNS
HT29 colon = test system: HT29 colon
SN12C renal = test system: SN12C renal
SNB-19 CNS = test system: SNB-19 CNS
M14 melanoma = test system: M14 melanoma
PC-3 prostate = test system: PC-3 prostate
K-562 leukemia = test system: K-562 leukemia
NCI-H522 lung = test system: NCI-H522 lung
OVCAR-4 ovarian = test system: OVCAR-4 ovarian
MDA-MB-231 breast = test system: MDA-MB-231 breast
NCI-H23 lung = test system: NCI-H23 lung
A549 NSCLC = test system: A549 NSCLC
OVCAR-5 ovarian = test system: OVCAR-5 ovarian
SK-MEL-2 melanoma = test system: SK-MEL-2 melanoma
HCT-15 colon = test system: HCT-15 colon
SK-OV-3 ovarian = test system: SK-OV-3 ovarian
UO-31 renal = test system: UO-31 renal
A498 renal = test system: A498 renal
NCI/ADR-RES ovarian = test system: NCI/ADR-RES ovarian
SNB-75 CNS = test system: SNB-75 CNS
T-47D breast = test system: T-47D breast
NCI-H460 lung = test system: NCI-H460 lung
CAKI-1 renal = test system: CAKI-1 renal
MOLT-4 leukemia = test system: MOLT-4 leukemia
RPMI-8226 leukemia = test system: RPMI-8226 leukemia
ACHN renal = test system: ACHN renal
SK-MEL-5 melanoma = test system: SK-MEL-5 melanoma
SW-620 colon = test system: SW-620 colon
COLO 205 colon = test system: COLO 205 colon
RXF 393 renal = test system: RXF 393 renal
SF-295 CNS = test system: SF-295 CNS
HS 578T breast = test system: HS 578T breast
U251 CNS = test system: U251 CNS
TK-10 renal = test system: TK-10 renal

## CC(=O)Nc1ccc(-c2cn(-c3cccc(C(=O)Nc4ccc(Cl)c(C(F)(F)F)c4)c3)nn2)cn1
SK-MEL-28 melanoma
  GI50: 1.35 µM
  TGI: 2.82 µM
MALME-3M melanoma
  GI50: 0.559 µM
  TGI: 1.95 µM
HOP-62 NSCLC
  GI50: 1.67 µM
  TGI: 3.49 µM
OVCAR-3 ovarian
  GI50: 1.92 µM
  TGI: 3.62 µM
HCC-2998 colon
  GI50: 1.87 µM
  TGI: 4.02 µM
UACC-62 melanoma
  GI50: 1.29 µM
  TGI: 2.79 µM
HOP-92 NSCLC
  GI50: 1.58 µM
  TGI: 3.6 µM
MCF7 breast
  GI50: 1.82 µM
  TGI: 4.12 µM
UACC-257 melanoma
  GI50: 1.56 µM
  TGI: 3.5 µM
SF-539 CNS
  GI50: 1.44 µM
  TGI: 2.82 µM
KM12 colon
  GI50: 1.81 µM
  TGI: 6.37 µM
BT-549 breast
  GI50: 1.69 µM
  TGI: 3.5 µM
SR leukemia
  GI50: 1.86 µM
  TGI: > 100 µM
EKVX NSCLC
  GI50: 1.89 µM
  TGI: 3.92 µM
HL-60(TB) leukemia
  GI50: 0.824 µM
  TGI: > 100 µM
NCI-H226 lung
  GI50: 1.87 µM
  TGI: 3.78 µM
LOX IMVI melanoma
  GI50: 1.39 µM
  TGI: 2.72 µM
MDA-MB-435
  GI50: 1.39 µM
  TGI: 3.05 µM
IGROV1 ovarian
  GI50: 1.7 µM
  TGI: 3.36 µM
MDA-MB-468 breast
  GI50: 1.45 µM
  TGI: 3.02 µM
DU-145 prostate
  GI50: 2.83 µM
  TGI: 8.43 µM
OVCAR-8 ovarian
  GI50: 2.02 µM
  TGI: 4.66 µM
SF-268 CNS
  GI50: 2.3 µM
  TGI: 5.73 µM
HT29 colon
  GI50: 1.43 µM
  TGI: 3.09 µM
SN12C renal
  GI50: 1.77 µM
  TGI: 3.49 µM
SNB-19 CNS
  GI50: 2.24 µM
  TGI: 4.7 µM
M14 melanoma
  GI50: 1.12 µM
  TGI: 3.46 µM
PC-3 prostate
  GI50: 1.83 µM
  TGI: 5.21 µM
K-562 leukemia
  GI50: 1.32 µM
  TGI: 5.89 µM
NCI-H522 lung
  GI50: 1.71 µM
  TGI: 3.6 µM
OVCAR-4 ovarian
  GI50: 2.53 µM
  TGI: 7.39 µM
MDA-MB-231 breast
  GI50: 1.09 µM
  TGI: 2.39 µM
NCI-H23 lung
  GI50: 1.52 µM
  TGI: 2.98 µM
A549 NSCLC
  GI50: 1.86 µM
  TGI: 3.86 µM
OVCAR-5 ovarian
  GI50: 1.93 µM
  TGI: 4.86 µM
SK-MEL-2 melanoma
  GI50: 1.65 µM
  TGI: 3.78 µM
HCT-15 colon
  GI50: 2.02 µM
  TGI: 4.28 µM
SK-OV-3 ovarian
  GI50: 2.01 µM
  TGI: 5.17 µM
UO-31 renal
  GI50: 1.64 µM
  TGI: 3.54 µM
A498 renal
  GI50: 2.9 µM
  TGI: 5.46 µM
NCI/ADR-RES ovarian
  GI50: 3.5 µM
  TGI: 17.8 µM
SNB-75 CNS
  GI50: 1.61 µM
  TGI: 4.47 µM
T-47D breast
  GI50: 2.47 µM
  TGI: 7.93 µM
NCI-H460 lung
  GI50: 1.5 µM
  TGI: 3.05 µM
CAKI-1 renal
  GI50: 1.78 µM
  TGI: 3.54 µM
MOLT-4 leukemia
  GI50: 2.62 µM
  TGI: 7.99 µM
RPMI-8226 leukemia
  GI50: 2.5 µM
  TGI: 34.7 µM
ACHN renal
  GI50: 1.93 µM
  TGI: 4.04 µM
SK-MEL-5 melanoma
  GI50: 1.9 µM
  TGI: 4.3 µM
SW-620 colon
  GI50: 1.57 µM
  TGI: 3.29 µM
COLO 205 colon
  GI50: 1.47 µM
  TGI: 3.45 µM
RXF 393 renal
  GI50: 1.69 µM
  TGI: 3.5 µM
SF-295 CNS
  GI50: 1.51 µM
  TGI: 2.91 µM
HS 578T breast
  GI50: 2.03 µM
  TGI: 7.01 µM
U251 CNS
  GI50: 1.85 µM
  TGI: 3.59 µM
TK-10 renal
  GI50: 2.3 µM
  TGI: 4.68 µM
